# Results as given in ChEMBL document CHEMBL5614387, “Discovery of 2,4,6-trisubstituted pyrimidine derivatives as novel potent HIV-1 NNRTIs by exploiting the tolerant region II of the NNIBP” (Eur J Med Chem, 2024).
# How the values were obtained:
# [1] = tested on: Human immunodeficiency virus 1; experiment: Antiviral activity against wild-type HIV-1 IIIB infected in human MT4 cells assessed as protection against virus-induced cytopathic effect by MTT assay; type: functional, organism-based; settings: Human immunodeficiency virus 1, IIIB
# [2] = Cytotoxicity against human MT4 cells assessed as reduction in cell viability by MTT assay; type: toxicity, cell-based
# [3] = Selectivity index, ratio of CC50 for human MT4 cells to EC50 for wild-type HIV-1 IIIB infected in human MT4 cells; type: toxicity, cell-based; settings: read-out: Ratio CC50/EC50
# [4] = tested on: Human immunodeficiency virus 1; experiment: Antiviral activity against HIV-1 harboring RT L100I mutant infected in human MT4 cells assessed as protection against virus-induced cytopathic effect by MTT assay; type: functional, organism-based; settings: Human immunodeficiency virus 1, MT4
# [5] = tested on: Human immunodeficiency virus 1; experiment: Antiviral activity against HIV-1 harboring RT K103N mutant infected in human MT4 cells assessed as protection against virus-induced cytopathic effect by MTT assay; type: functional, organism-based; settings: Human immunodeficiency virus 1, MT4
# [6] = tested on: Human immunodeficiency virus 1; experiment: Antiviral activity against HIV-1 harboring RT Y181C mutant infected in human MT4 cells assessed as protection against virus-induced cytopathic effect by MTT assay; type: functional, organism-based; settings: Human immunodeficiency virus 1, MT4
# [7] = tested on: Human immunodeficiency virus 1; experiment: Antiviral activity against HIV-1 harboring RT Y188L mutant infected in human MT4 cells assessed as protection against virus-induced cytopathic effect by MTT assay; type: functional, organism-based; settings: Human immunodeficiency virus 1, MT4
# [8] = tested on: Human immunodeficiency virus 1; experiment: Antiviral activity against HIV-1 harboring RT E138K mutant infected in human MT4 cells assessed as protection against virus-induced cytopathic effect by MTT assay; type: functional, organism-based; settings: Human immunodeficiency virus 1, MT4
# [9] = tested on: Human immunodeficiency virus 1; experiment: Antiviral activity against HIV-1 harboring RT F227L/V106A mutant infected in human MT4 cells assessed as protection against virus-induced cytopathic effect by MTT assay; type: functional, organism-based; settings: Human immunodeficiency virus 1, MT4
# [10] = tested on: Human immunodeficiency virus 1; experiment: Antiviral activity against HIV-1 harboring RT RES056 mutant infected in human MT4 cells assessed as protection against virus-induced cytopathic effect by MTT assay; type: functional, organism-based; settings: Human immunodeficiency virus 1, MT4
# [11] = target: Human immunodeficiency virus type 1 reverse transcriptase (Human immunodeficiency virus 1, UniProt Q72547); experiment: Inhibition of wild-type HIV-1 reverse transcriptase incubated for 1 hr in presence of biotin-dUTP by ELISA
SMILES,EC50 [1] [nM],CC50 [2] [nM],selectivity ratio [3],EC50 [4] [nM],EC50 [5] [nM],EC50 [6] [nM],EC50 [7] [nM],EC50 [8] [nM],EC50 [9] [nM],EC50 [10] [nM],IC50 [11] [nM]
Cc1cc(C#N)cc(C)c1Oc1cc(-c2ccco2)nc(NC2CCN(Cc3ccc(C(N)=O)cc3)CC2)n1,15.5,24000,1550,,,,,,,,
Cc1cc(C#N)cc(C)c1Oc1cc(-c2cccs2)nc(NC2CCN(Cc3ccc(S(C)(=O)=O)cc3)CC2)n1,5.53,16600,3000,,,,,,,,
Cc1cc(C#N)cc(C)c1Oc1cc(-c2ccoc2)nc(NC2CCN(Cc3ccc(C(N)=O)cc3)CC2)n1,5.49,19800,3610,,,,,,,,
Cc1cc(C#N)cc(C)c1Oc1cc(-c2cccnc2)nc(NC2CCN(Cc3ccc(S(C)(=O)=O)cc3)CC2)n1,4.12,20600,5000,58.5,9.01,21.9,36.6,26.1,147,799,607
Cc1cc(C#N)cc(C)c1Oc1cc(-c2cccnc2)nc(NC2CCN(Cc3ccc(S(N)(=O)=O)cc3)CC2)n1,4.04,18200,4500,31.2,13.1,26,36.5,21.1,105,494,461
Cc1cc(C#N)cc(C)c1Oc1cc(-c2cccnc2)nc(NC2CCN(Cc3ccc(C(N)=O)cc3)CC2)n1,3.61,17200,4760,35.6,11.2,15.3,37.6,9.6,106,1420,428
Cc1ccnc2c1NC(=O)c1cccnc1N2C1CC1 [NEVIRAPINE],,> 15000,> 73,3130,8250,9210,> 15000,363,> 15000,> 15000,
Cc1cc(C#N)cc(C)c1Oc1cc(-c2ccoc2)nc(NC2CCN(Cc3ccc(S(C)(=O)=O)cc3)CC2)n1,5.56,22600,4060,,,,,,,,
Cc1cc(C#N)cc(C)c1Oc1cc(-c2ccncc2)nc(NC2CCN(Cc3ccc(S(C)(=O)=O)cc3)CC2)n1,4.07,26300,6460,58.3,10.1,50.9,61.5,17.8,107,2350,520
Cc1cc(C#N)cc(C)c1Oc1cc(-c2cccs2)nc(NC2CCN(Cc3ccc(C(N)=O)cc3)CC2)n1,4.48,19300,4310,20.2,6.68,30.5,44.4,36.1,63.4,399,299
Cc1cc(C#N)cc(C)c1Oc1nc(Nc2ccc(C#N)cc2)nc(N)c1Br [ETRAVIRINE],,> 4590,,,,,30.5,14.9,,32.3,
Cc1cc(C#N)cc(C)c1Oc1cc(-c2ccncc2)nc(NC2CCN(Cc3ccc(C(N)=O)cc3)CC2)n1,7.39,21200,2870,,,,,,,,
Cc1cc(C#N)cc(C)c1Oc1cc(-c2cncnc2)nc(NC2CCN(Cc3ccc(S(N)(=O)=O)cc3)CC2)n1,4.29,109000,25400,39.8,13,26,55,34.5,63.4,916,733
Cc1cc(C#N)cc(C)c1Oc1cc(-c2ccccc2)nc(NC2CCN(Cc3ccc(S(C)(=O)=O)cc3)CC2)n1,4.68,12500,2670,11.4,6.82,27.7,38,32.5,26,229,231
Cc1cc(C#N)cc(C)c1Oc1cc(-c2ccsc2)nc(NC2CCN(Cc3ccc(C(N)=O)cc3)CC2)n1,5.06,23700,4680,,,,,,,,
Cc1cc(C#N)cc(C)c1Oc1cc(-c2ccsc2)nc(NC2CCN(Cc3ccc(S(C)(=O)=O)cc3)CC2)n1,167,> 219000,> 1310,,,,,,,,
Cc1cc(C#N)cc(C)c1Oc1cc(-c2ccco2)nc(NC2CCN(Cc3ccc(S(C)(=O)=O)cc3)CC2)n1,5.68,20700,3640,,,,,,,,
Cc1cc(C#N)cc(C)c1Oc1cc(-c2cncnc2)nc(NC2CCN(Cc3ccc(C(N)=O)cc3)CC2)n1,4.11,41600,10100,76.8,10.2,24.6,35.3,29,279,1060,601
Cc1cc(C#N)cc(C)c1Oc1cc(-c2ccco2)nc(NC2CCN(Cc3ccc(S(N)(=O)=O)cc3)CC2)n1,7.85,22800,2900,,,,,,,,
Cc1cc(C#N)cc(C)c1Oc1cc(-c2cccs2)nc(NC2CCN(Cc3ccc(S(N)(=O)=O)cc3)CC2)n1,10.6,24600,2320,,,,,,,,
O=C1Nc2ccc(Cl)cc2[C@@](C#CC2CC2)(C(F)(F)F)O1 [EFAVIRENZ],3.67,> 6340,,28.9,,,396,8.82,261,,
Cc1cc(C#N)cc(C)c1Oc1cc(-c2ccccc2)nc(NC2CCN(Cc3ccc(S(N)(=O)=O)cc3)CC2)n1,6.01,18000,3000,,,,,,,,
Cc1cc(C#N)cc(C)c1Oc1cc(-c2ccncc2)nc(NC2CCN(Cc3ccc(S(N)(=O)=O)cc3)CC2)n1,3.62,18400,5080,99.7,10.6,43.4,58.6,14.8,72.6,1210,507
Cc1cc(C#N)cc(C)c1Oc1cc(-c2cncnc2)nc(NC2CCN(Cc3ccc(S(C)(=O)=O)cc3)CC2)n1,6.72,108000,16100,,,,,,,,
Cc1cc(C#N)cc(C)c1Oc1cc(-c2ccoc2)nc(NC2CCN(Cc3ccc(S(N)(=O)=O)cc3)CC2)n1,9.36,29500,3150,,,,,,,,
Cc1cc(C#N)cc(C)c1Oc1cc(-c2ccccc2)nc(NC2CCN(Cc3ccc(C(N)=O)cc3)CC2)n1,6.23,23100,3710,,,,,,,,
